The record followed here is patent US8921552B2, “Benzothiazole hybrids useful as anticancer agents and process for the preparation thereof” (Council of Scientific & Industrial Research, priority 2011, dated 2014).

For orientation: inhibition means the change of the read-out against control, counted positive when it falls.

The subject of experiment [1] is SW-620. The experiment can be described thus: In vitro cytotoxicity, SRB assay, colon cancer cell line SW-620. Type of experiment: cell-based. Conditions: Homo sapiens, SW-620 (colon), 48 h exposure, read-out: % of growth inhibition. As to the method: (§1) The benzothiazole hybrids has been tested against seven human tumor cell lines derived from six cancer types (lung cancer, colon cancer, CNS cancer, ovarian cancer, prostate cancer and breast cancer). For these compounds results are expressed as percent of cell growth inhibition relative to that of untreated control cells. A protocol of 48 h continuous drug exposure has been used, and a sulforhodamine B (SRB) protein assay was used to estimate cell viability or growth.
(§2) The compounds 9b, 9h, 9m, 9r, 15c, 15h, 15m, 15r, 10b, 10h, 10m, 10r, 16c, 16h and 16m were evaluated for in vitro anticancer activity against seven human tumor cells derived from six cancer types (lung cancer, colon cancer, CNS cancer, ovarian cancer, prostate cancer and breast cancer) at concentration of 10 μM and the results are shown in Table 1.
Background: In SRB staining, fixed cells bind dye roughly in proportion to their protein.

In another experiment the test system is Colo-205. The experiment in a line: In vitro cytotoxicity, SRB assay, colon cancer cell line Colo-205. Type of experiment: cell-based, human. To be noted: Colo-205 (colon); for inhibition at 10 µM: 48 h exposure. An excerpt: (§3) The benzothiazole hybrids has been tested against seven human tumor cell lines derived from six cancer types (lung cancer, colon cancer, CNS cancer, ovarian cancer, prostate cancer and breast cancer). For these compounds results are expressed as percent of cell growth inhibition relative to that of untreated control cells.

A further experiment has as its system PC-3. The experiment in a line: In vitro cytotoxicity, SRB assay, prostate cancer cell line PC-3. To be noted: PC-3 (prostate); for inhibition at 10 µM: 48 h exposure. The format is cell-based, human.
From the text: as §3

The subject of another experiment is MCF7. The experiment in a line: In vitro cytotoxicity, SRB assay, breast cancer cell line MCF7. Type of experiment: cell-based, human. To be noted: for inhibition at 10 µM: 48 h exposure.
From the text: as §3

The subject of another experiment is A-549. The experiment in a line: In vitro cytotoxicity, SRB assay, lung cancer cell line A-549. Type of experiment: cell-based, human. Conditions: A-549 (lung); for inhibition at 10 µM: 48 h exposure.
From the text: as §3

For another experiment, the system named is SF-295. The experiment can be described thus: In vitro cytotoxicity, SRB assay, CNS cancer cell line SF-295. Type of experiment: cell-based, human. To be noted: SF-295 (CNS); for inhibition at 10 µM: 48 h exposure.
From the text: as §3

A further experiment concerns IGR-OV-1. The experiment can be described thus: In vitro cytotoxicity, SRB assay, ovarian cancer cell line IGR-OV-1. Type of experiment: cell-based, human. Conditions: IGR-OV-1 (ovarian); for inhibition at 10 µM: 48 h exposure.
From the text: as §3

Experiment [2] relates to SW-620. The experiment in a line: In vitro cytotoxicity, SRB assay, colon cancer cell line SW-620. The format is cell-based, human. Conditions: SW-620 (colon), reference drug at 1 μM.
In a further experiment the test system is human tumor cell lines. The experiment in a line: In vitro anticancer activity, panel of seven human tumor cell lines (SRB assay). The format is cell-based. Conditions: Homo sapiens; range over the cell lines, 10 μM, exposure period of at least 48 hrs; read-out: percentage growth inhibition for invitro anticancer activity. As to the method: as §1, §2
[3] abbreviates: Homo sapiens, read-out: % of growth inhibition.
Setting [4] is: Homo sapiens, A549, read-out: % of growth inhibition.
Setting [5] is: Homo sapiens, IGROV-1, read-out: % of growth inhibition.
The mark [6] stands for this setting: Homo sapiens, reference drug at 1 μM, read-out: % of growth inhibition.

`O=c1[nH]cc(F)c(=O)[nH]1` [5-Fluoro uracil, reference compound]: the inhibition at 10 µM in the experiment with SW-620 [1] amounted to 41%; with Colo-205 (setting [3]), 55%; in the experiment on PC-3 (setting [3]) it was 29%; in the experiment with MCF7 (setting [3]) it was 66%; in the experiment on A-549 (setting [4]), 64%; with SF-295 (setting [3]), 9%. Also, the inhibition at 10 µM in the experiment with IGR-OV-1 (setting [5]) turned out to be 47%.
As to `COc1cccc2c1C(=O)c1c(O)c3c(c(O)c1C2=O)C[C@@](O)(C(=O)CO)C[C@@H]3O[C@H]1C[C@H](N)[C@H](O)[C@H](C)O1` [Adriyamycin, reference compound], the “% of growth inhibition” value with SW-620 [2] was found to be 21%; in the experiment on Colo-205 (reference drug at 1 μM) it was 77%; with PC-3 (reference drug at 1 μM) it was 55%; in the experiment on MCF7 (reference drug at 1 μM) it was 69%; in the experiment with A-549 (reference drug at 1 μM), 95%; in the experiment on SF-295 (reference drug at 1 μM) it was 55%. Also, the “% of growth inhibition” value with IGR-OV-1 (reference drug at 1 μM) worked out at 78%.
With `COc1cc(-c2nc3ccccc3s2)ccc1OCCCOc1cc(/C=C\c2cc(OC)c(OC)c(OC)c2)ccc1OC` [Compound 9b, 2-[3-methoxy-4-(3-{2-methoxy-5-[(Z)-2-(3,4,5-trimethoxyphenyl)-1-ethenyl]phenoxy}propoxy)phenyl]-1,3-benzothiazole], the inhibition at 10 µM came out at 16% in the experiment with Colo-205 (setting [3]); 78% with PC-3 (setting [3]); 57% with MCF7 (setting [3]); 69% in the experiment on A-549 (setting [4]); 53% in the experiment on SF-295 (setting [3]); 54% in the experiment with IGR-OV-1 (setting [5]). The inhibition at 10 µM in the experiment with human tumor cell lines lay within 1 to 100%.
In the case of `COc1ccc(/C=C\c2cc(OC)c(OC)c(OC)c2)cc1OCCCCOc1ccc(-c2nc3ccccc3s2)cc1` [Compound 9h, 2-[4-(4-{2-methoxy-5-[(Z)-2-(3,4,5-trimethoxyphenyl)-1-ethenyl]phenoxy}butoxy)phenyl]-1,3-benzothiazole], the inhibition at 10 µM with Colo-205 (setting [3]) was found to be 15%; with PC-3 (setting [3]) it was 65%; in the experiment with MCF7 (setting [3]), 64%; in the experiment with A-549 (setting [4]) it was 63%; in the experiment with SF-295 (setting [3]) it was 34%; in the experiment with IGR-OV-1 (setting [5]), 54%. Moreover, in the experiment on human tumor cell lines, the inhibition at 10 µM lay in the range of 1 to 100%.
On to `COc1ccc(/C=C\c2cc(OC)c(OC)c(OC)c2)cc1OCCCCOc1cc(-c2nc3ccccc3s2)ccc1OC` [Compound 9m, 2-[4-methoxy-3-(4-{2-methoxy-5-[(Z)-2-(3,4,5-trimethoxyphenyl)-1-ethenyl]phenoxy}butoxy)phenyl]-1,3-benzothiazole], for which the inhibition at 10 µM worked out at 70% in the experiment with Colo-205 (setting [3]); 68% in the experiment on PC-3 (setting [3]); 64% with MCF7 (setting [3]); 73% in the experiment on A-549 (setting [4]); 44% in the experiment on SF-295 (setting [3]); 58% in the experiment with IGR-OV-1 (setting [5]). Further, the inhibition at 10 µM in the experiment on human tumor cell lines lay within 1 to 100%.
On to `CC(=O)O[C@H]1C(=O)[C@@]2(C)[C@H]([C@H](OC(=O)c3ccccc3)[C@]3(O)C[C@H](OC(=O)[C@H](O)[C@@H](NC(=O)c4ccccc4)c4ccccc4)C(C)=C1C3(C)C)[C@]1(OC(C)=O)CO[C@@H]1C[C@@H]2O` [Paclitaxel, reference compound], for which the inhibition at 1 µM with Colo-205 (setting [6]) is 95%; with PC-3 (setting [6]), 35%; in the experiment on MCF7 (setting [6]) it was 59%; in the experiment with A-549 (Homo sapiens, A549, reference drug at 1 μM, read-out: % of growth inhibition), 62%; in the experiment with SF-295 (setting [6]), 59%; with IGR-OV-1 (Homo sapiens, IGROV-1, reference drug at 1 μM, read-out: % of growth inhibition) it was 44%.
